The source of these data is patent US20130204017A1, “GLYCERYL ASCORBIC ACID ACYLATED DERIVATIVE OR ITS SALT, PRODUCTION METHOD THEREOF, AND COSMETICS” (SEIWA KASEI COMPANY, LIMITED, priority 2012, published 2013).

Series [1] has as its system Normal human dermal fibroblasts. The series can be described thus: Collagen production evaluation test (Sircol collagen assay). The conditions noted are these: Homo sapiens, Fibroblast; sample 100 μM; cultured 48 hours; read-out: Collagen production promoting effect (collagen production amount, control group is 100%). The class given is cell-based. How it is done: The collagen production promoting effects of the glyceryl ascorbic acid acylated derivatives of the present invention were evaluated, according to the following procedure. As comparison, arbutin, ascorbic acid, sodium ascorbate, magnesium ascorbyl phosphate, glucosyl ascorbic acid, 3-O-glyceryl ascorbic acid and 2-O-glyceryl ascorbic acid were used like in Test Example 1.
Normal human dermal fibroblasts were regulated with a 10% (v/v) fetal bovine serum (manufactured by Invitrogen)-containing D-MEM so as to give a cell density of 2.5×10^4 cells/well, then, pre-incubation for 24 hours was performed on a 96-well plate. After the medium was removed, a sample regulated with a 5% (v/v) fetal bovine serum-containing D-MEM to a concentration of 100 μM was added to each well, then, cultured for 48 hours at 37° C. and 5% CO2. After completion of culturing, the amount of free collagen was measured using Sircol collagen assay kit (manufactured by Biocolor).
The collagen production amount in applying a sample at a concentration of 100 μM is obtained as % value when the control group is 100%, and the results are shown in Table 4 based on the following standard.

In another series the test system is B16 melanoma 4A5 cell. The series can be described thus: Melanin production suppressing evaluation test (theophylline-induced melanine production). Format: cell-based, mouse. The conditions noted are these: sample at a concentration of 100 μl or less; 0.2 mM theophylline; culturing 3 days. As to the method: As a test for a whitening effect, evaluation of the action of B16 melanoma 4A5 cell on theophylline-induced melanine production was carried out on a glyceryl ascorbic acid acylated derivative of the present invention, according to the following procedure. The same evaluations were carried out also on arbutin, ascorbic acid, sodium ascorbate, magnesium ascorbyl phosphate, glucosyl ascorbic acid, and 3-O-glyceryl ascorbic acid and 2-O-glyceryl ascorbic acid obtained in the Synthesis Examples mentioned above, as comparison.
(1) B16 mouse melanoma 4A5 strain was sowed onto a 48-well plate at a cell density of 2.0×10^4 cells/well. (2) Culturing was performed for 24 hours with Dulbecco's Modified Eagle's medium (manufactured by SIGMA. Hereinafter, abbreviated as D-MEM) containing 10% fetal bovine serum (manufactured by Roshe Diagnostics). Then, it was changed to 0.2 mM theophylline and a 10% fetal bovine serum-containing D-MEM which contains a sample of given concentration. (3) After culturing for 3 days in the co-existence of a sample, the medium was removed using an aspirator. Then, after distilled water was added, cells were broken by an ultrasonic wave. (4) Thereafter, the amount of protein was determined using BCA protein assay kit (manufactured by PIERCE), and the produced amount of melanine was measured by an alkali solubilizing method described later. To the cell-destructed solution was added sodium hydroxide so as to give a final concentration of 2 mol/L and the mixture was dissolved by heating (60° C., 15 minutes), then, the absorbance at 450 nm was measured using a micro plate reader. The melanine amount was calculated from a calibration curve made using synthetic melanine (SIGMA) as a standard. The melanine amount per unit protein was calculated by dividing the melanine amount by the protein amount. (5) The melanine production suppressing rate was calculated according to the following formula.
Melanine production suppressing rate(%)=[1−(A−B)/(C−B)]×100
[wherein, A represents the melanine amount per unit protein (g/g) in adding a sample, B represents the melanine amount per unit protein (g/g) in the normal group, and C represents the melanine amount per unit protein (g/g) in the control group.]
The normal group means the case where neither theophylline nor sample was added.(that is; theophylline(−) and sample(−))
The control group means the case where neither sample was not added but theophylline was added.(that is; theophylline (+) and sample(−))
In the following Tables, the melanine production suppressing rate in applying a sample at a concentration of […] or less is expressed as described below.

A short description of series [2]: In vivo moisturizing test (stratum corneum water content, forearm). The conditions noted are these: 5 g in 100 mL water, pH 7; 0.3 mL on forearm; 8 hours; 10 subjects. As to the method:
(§1) An in vitro moisturizing test and an in vivo moisturizing test of the glyceryl ascorbic acid acylated derivatives of Examples 1 to 6 were carried out according to the following manner. For comparison, sodium ascorbate, magnesium ascorbyl phosphate, glucosyl ascorbic acid, 3-O-glyceryl ascorbic acid, 2-O-glyceryl ascorbic acid and 3-O-cetyl ascorbic acid were used.
Each test sample (5 g) was dissolved in 100 mL of water, and pH thereof was adjusted to 7 with a dilute sodium hydroxide aqueous solution or a dilute hydrochloric acid aqueous solution to prepare a sample solution. A paper filter of 1 cm×1 cm was placed on a forearm portion and 0.3 mL of the prepared sample solution was applied on this, and covered and fixed by a polyamide film. Then, 3 hours and 8 hours after, the stratum corneum water content at the sample-applied portion was measured using CORNEOMETER CM825 (manufactured by Integral Corporation). The test was carried out with 10 subjects, and evaluated according to the following criterion (evaluation standard).
3: Stratum corneum water content increased by 15% or more, based on the water content before sample application
2: Stratum corneum water content increased by 0 to less than 15%, based on the water content before sample application
1: There was no change or there was a reduction in stratum corneum water content, before and after sample application.
Based on the evaluation results, classification was set as described below.
◯: Total points of 10 subjects is 25 or more
Δ: Total points of 10 subjects is 16 to 24
x: Total points of 10 subjects is 15 or less

The nature of series [3]: In vitro moisturizing test (amount of retained water). The class given is physicochemical. The conditions noted are these: 25° C., 65% RH to equilibrium, then 25° C., 20% RH for 24 hours. As to the method:
as §1
A sample shown later was dried, and the dried sample was spread in an amount of about 0.4 g (this weight is represented by W0) on the bottom of a weighing bottle (diameter: 3.6 cm, height excluding lid: 1.8 cm) so as to give uniform thickness. The sample contained in the weighing bottle was allowed to stand still in a constant humidity and constant temperature vessel (ENVIROS KCL-1000, EYELA) under environments of 25° C. and 65% RH. The weight was measured periodically, waiting until sufficient moisture absorption to attain equilibrium of weight increase (about 48 hours). Thereafter, the sample was transferred to under environments of 25° C. and 20% RH (in sealed vessel containing a saturated CH3COOK aqueous solution filled in the bottom part). From the weight after 24 hours (this weight is represented by W1), the amount of retained water per 1 g of the dried sample was calculated according to the following formula.
From the water amount thus calculated, the moisturizing effect was judged based on the following judging criterion, and the results are shown in Table 8.
Δ: 15 mg or more and less than 35 mg

A short description of series [4]: Stability test: odor and color change of 2% aqueous solution stored at 50° C. Format: physicochemical. The conditions noted are these: pH7, ten panelists. As to the method:
Using 2-O-glyceryl-6-O-octanoyl ascorbic acid obtained in Example 2 and 2-O-glyceryl-6-O-octadecanoyl ascorbic acid obtained in Example 9, an evaluation was made on the stability of odor and color change when stored at 50° C. for 4 weeks, according to the following procedure. For comparison, magnesium ascorbyl phosphate, ascorbic acid and 3-O-glyceryl ascorbic acid were used.
Aqueous solutions (2%) of various test samples were adjusted to pH7 with a dilute sodium hydroxide aqueous solution or a dilute hydrochloric acid aqueous solution, and charged into 50 mL screw tubes. The tubes were sealed and stored at 50° C. for 4 weeks. The odor and degree of color change immediately after preparation, after storage for two weeks and after storage for four weeks were evaluated by ten panelists based on the following methods and according to the following criterion.
3: almost no change as compared with that immediately after preparation
2: color change is observed as compared with that immediately after preparation
1: intense color change is observed as compared with that immediately after preparation
Based on the evaluation results, classification was conducted as shown below.
◯: total point of 10 panelists is 25 or more
Δ: total point of 10 panelists is 16 to 24
x: total point of 10 panelists is 15 or less

[5] abbreviates: storage period 0 (immediately after preparation).

Molecules are shown by their SMILES.

`O=C1O[C@H]([C@@H](O)CO)C(OCC(O)CO)=C1O` (stereo partly shown) [3-O-glyceryl ascorbic acid]: the activity at 100 µM in series [1] lay within 100 to 200%. Also, the “Whitening effect (melanine production suppressing rate)” value in the series with B16 melanoma 4A5 cell is “Δ (Less than 30%)”. The “in vivo moisturizing (stratum corneum water content) after 8 hours” value in series [2] was “Δ (Total points of 10 subjects is 16 to 24)”. The “in vitro moisturizing effect (amount of retained water per 1 g of the dried sample)” value in series [3] is given as “◯ (35 mg or more)”. Also, the Color change entry is recorded as “◯ (total point of 10 panelists is 25 or more)” in series [4] (storage 2 weeks at 50° C.), “Δ (total point of 10 panelists is 16 to 24)” in series [4] (storage 4 weeks at 50° C.) and “◯ (total point of 10 panelists is 25 or more)” in series [4] (setting [5]). In addition, the Odor entry in series [4] (storage 2 weeks at 50° C.), in series [4] (storage 4 weeks at 50° C.) and in series [4] (setting [5]) was “◯ (total point of 10 panelists is 25 or more)” throughout.
